Reference: patent US12611402B2, “Compounds and their use for the treatment of ALPHA1-antitrypsin deficiency” (CENTESSA PHARMACEUTICALS (UK) LIMITED, priority 2019, dated 2026)

Key:
[1] = molecular target: T1, human Z A1AT (Homo sapiens, UniProt P01009, E366K); experiment: Circulating human Z A1AT levels in huZ mouse (plasma ELISA); format: in vivo; set-up: expressed in transfected cells; host or cells: transgenic huZ mouse (line Z11.03, C57Bl/6), expressed in liver, measured in plasma; conditions: 5, 15 or 50 mg/kg twice a day by oral gavage for 14 days; plasma days 12, 13 and 14 vs basal
Excerpt: The huZ mouse (also referred to as the PiZZ mouse) is a transgenic mouse strain that contains multiple copies of the Z variant of the human A1AT gene, developed by two separate groups (Dycaico et al Science (1988) 242:1409-12) and Carlson et al J. Clin Invest (1989) 83:1183-90). HuZ mice are on a C57Bl/6 background and express the human Z A1AT protein in liver tissue. The mice used in this study are from the progeny of Carlson and colleagues (transgenic line Z11.03). […]
HuZ mice (n=4/group; male or female) with basal human Z A1AT plasma levels of between 200-600 μg/ml were treated with either vehicle or the compounds of Examples 1 or 17 at 5, 15 or 50 mg/kg twice a day by oral gavage for 14 consecutive days. […] Human Z A1AT levels in mouse plasma samples were measured by ELISA (Human Serpin A1/α1 antitrypsin duo set ELISA, R& D Systems, DY1268) per manufacturer's instructions.
Briefly, a 96 well plate was coated with human A1AT capture antibody overnight at room temperature (1:180 dilution from stock, 100 μl final volume/well). […] After which, 50 μl stop solution (2M H2SO4) was added and optical density (OD) of each well was read at 450 nm with 570 nm blank subtracted from each well using a microplate reader. […]

[2] = molecular target: T2, human Siiyama A1AT (Homo sapiens, UniProt P01009, S77F); experiment: A1AT cell secretion assay using HEK-Siiyama cells (ELISA); format: cell-based; conditions: 48 h; for secretion of Siiyama A1AT from HEK-Siiyama cells: 1 or 10 μM
T2 construct: expressed in transfected cells; host or cells: HEK-Siiyama cells (transfected HEK-EBNA)
Method: (§1) HEK-Siiyama cells, a human embryonic kidney cell line stably transfected with the human Siiyama A1AT gene, were plated into 96 well plates (3.0×10^5 cells/ml with 200 μl of media/well) overnight at 37° C. in a humidified atmosphere containing 5% CO2. Following incubation cells were washed with 200 μl serum-free media three times and media was replaced with serum-free media containing vehicle, 10 μM suberanilohydroxamic acid (SAHA) or a compound of Example 1 (at 1 and 10 μM) in replicates of eight for 48 h in a 37° C. incubator in a final volume of 200 μl. At the end of the incubation step the supernatants were removed from the wells, centrifuged at 1000×g at 4° C. for 10 min and were assayed for human A1AT levels by ELISA (Human Serpin A1/α1-antitrypsin duo set ELISA, R& D Systems, DY1268) per manufacturer's instructions.
(§2) Briefly, a 96 well plate was coated with human A1AT capture antibody overnight at room temperature (1:180 dilution from stock, 100 μl final volume/well). The capture antibody was then removed and wells washed three times with 300 μl wash buffer (0.05% Tween 20 in PBS) and then 200 μl reagent diluent (25% Tween 20 in PBS) was incubated in each well for 1 h at room temperature. Diluted samples, standards (125, 250, 500, 1000, 2000, 4000 and 8000 pg/ml A1AT) or blanks were then added to each well in duplicate and the plates were covered with a plate sealer and left at room temperature for 2 h. […] After which, 50 μl stop solution (2M H2SO4) was added and optical density (OD) of each well was read at 450 nm with 570 nm blank subtracted from each well using a microplate reader. A 4 parameter logistic curve was constructed using GraphPad Prism 7 and A1AT concentrations were determined in each sample by interpolation from a standard curve and multiplying by the appropriate dilution factor.
The amount of human Siiyama A1AT secreted from transfected HEK-EBNA cells into the media was measured by ELISA. […]

[3] = molecular target: T3, human M A1AT (Homo sapiens, UniProt P01009); experiment: A1AT cell secretion assay using HEK-M cells (ELISA); format: cell-based; conditions: 10 μM, 48 h
T3 construct: expressed in transfected cells; host or cells: HEK-M cells (transfected HEK-EBNA)
Method: as §1, with “HEK-M” for “HEK-Siiyama”, “M A1AT,” for “the human Siiyama A1AT gene,”, “Examples 1-16” for “Example 1 (at 1 and 10 μM)”, “six” for “eight”, “A1/α1 antitrypsin” for “A1/α1-antitrypsin”
Briefly, a 96 well plate was coated with human A1AT capture antibody overnight at room temperature (1:180 dilution from stock, 100 μl final volume/well). The capture antibody was then removed and wells washed three times with 300 μl wash buffer (0.05% Tween 20 in PBS) and then 200 μl reagent diluent ([…]) was incubated in each well for 1 h at room temperature. Diluted samples, standards (125, 250, 500, 1000, 2000, 4000 and 8000 pg/ml A1AT) or blanks were then added to each well in duplicate and the plates were covered with a plate sealer and left at room temperature for 2 h. At the end of the sample incubation step, samples were removed and all wells washed as previously and 100 μl detection antibody (1:180 dilution from stock) was added to each well and incubated for a further 2 h at room temperature. Following incubation with detection antibody, supernatant was removed and wells were washed as previously and 100 μl streptavidin-HRP solution (1:200 dilution from stock) was added to each well for 20 min in the dark. After which, 50 μl stop solution (2M H2SO4) was added and optical density (OD) of each well was read at 450 nm with 570 nm blank subtracted from each well using a microplate reader. A 4 parameter logistic curve was constructed using GraphPad Prism 7 and A1AT concentrations were determined in each sample by interpolation from a standard curve and multiplying by the appropriate dilution factor.
The amount of human M A1AT secreted from transfected HEK-EBNA cells into the media was measured by ELISA. SAHA at 10 μM was used a positive control for all in vitro A1AT secretion experiments.

[4] = molecular target: T1, human Z A1AT; experiment: A1AT cell secretion assay using HEK-Z cells (ELISA); format: cell-based; set-up: expressed in transfected cells; host or cells: HEK-Z cells (transfected HEK-EBNA); conditions: 48 h, supernatant ELISA
Method: HEK-Z cells, a human embryonic kidney cell line stably transfected with the human Z A1AT gene, were plated into 96 well plates (3.0×10^5 cells/ml with 200 μl of media/well) overnight at 37° C. in a humidified atmosphere containing 5% CO2. Following incubation cells were washed with 200 μl serum-free media three times and media was replaced with treatments in quadruplicate using serum-free media containing vehicle, 10 μM suberanilohydroxamic acid (SAHA) or the compounds of Examples 1-18 (at concentrations of 10, 33, 100 and 333 nM) for 48 h in a 37° C. incubator in a final volume of 200 μl. At the end of the incubation step the supernatants were removed from the wells, centrifuged at 1000×g at 4° C. for 10 min and were assayed for human A1AT levels by ELISA (Human Serpin A1/α1-antitrypsin duo set ELISA, R& D Systems, DY1268) per manufacturer's instructions.
as §2
The amount of human A1AT secreted from transfected HEK-EBNA cells into the media was measured by ELISA. […]

T1 sequence (P01009 25-418 E366K): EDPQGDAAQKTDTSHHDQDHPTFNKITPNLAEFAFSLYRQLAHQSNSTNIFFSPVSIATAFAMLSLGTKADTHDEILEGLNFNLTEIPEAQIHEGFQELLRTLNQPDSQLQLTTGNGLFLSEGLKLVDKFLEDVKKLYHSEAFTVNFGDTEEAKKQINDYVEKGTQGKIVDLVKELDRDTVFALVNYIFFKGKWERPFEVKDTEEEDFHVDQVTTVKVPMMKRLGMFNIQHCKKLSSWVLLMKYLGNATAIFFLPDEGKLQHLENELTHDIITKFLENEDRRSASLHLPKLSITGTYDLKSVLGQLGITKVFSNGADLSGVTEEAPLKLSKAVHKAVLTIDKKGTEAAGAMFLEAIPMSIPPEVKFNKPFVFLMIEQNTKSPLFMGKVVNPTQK
T3 sequence (P01009 25-418): as the sequence (P01009 25-418 E366K) above, with K342E counted along it
T2 sequence (P01009 25-418 S77F): as the sequence (P01009 25-418 E366K) above, with S53F, K342E counted along it

| Compound | secretion of human M A1AT from HEK-M cells [3] | Median A1AT increase over vehicle at 300 nM [4] | other results |
| --- | --- | --- | --- |
| O=C(O)C1CCN(S(=O)(=O)c2cccc3cccnc23)CC1 [Example 1, 1-(Quinolin-8-ylsulfonyl)piperidine-4-carboxylic acid] | did not lead to an increase | – | secretion of human Z A1AT compared to baseline levels in huZ mice [1]: stimulated secretion; secretion of Siiyama A1AT from HEK-Siiyama cells [2]: did not stimulate secretion |
| O=C(O)C1CCN(S(=O)(=O)c2ccc(C(F)(F)F)cc2)CC1 [Example 12, 1-((4-(Trifluoromethyl)phenyl)sulfonyl)piperidine-4-carboxylic add] | – | 200 | – |
| O=C(O)[C@H]1CCCN(S(=O)(=O)c2ccccc2C(F)(F)F)C1 [Example 17, (S)-1-((2-(Trinfluoromethyl)phenyl)sulfonyl)piperidine-3-carboxylic acid] | did not lead to an increase | 310 | secretion of human Z A1AT compared to baseline levels in huZ mice [1]: stimulated secretion; secretion of Siiyama A1AT from HEK-Siiyama cells [2]: did not stimulate secretion |
| O=C(CCCCCCC(=O)Nc1ccccc1)NO [SAHA, suberanilohydroxamic acid, reference compound] | – | – | Siiyama A1AT secretion from HEK-Siiyama cells (positive control) ([2]; 10 μM): stimulated an increase |
| O=C(O)C1CCN(S(=O)(=O)c2cccc(Cl)c2)CC1 [Example 3, 1-((3-Chlorophenyl)sulfonyl)piperidine-4-carboxylic acid] | did not lead to an increase | – | – |
| O=C(O)C1CCN(S(=O)(=O)c2ccccc2C(F)(F)F)CC1 [Example 10, 1-((2-(Trifluoromethyl)phenyl)sulfonyl)piperidine-4-carboxylic acid] | did not lead to an increase | – | – |
| O=C(O)C1CCN(S(=O)(=O)c2cccc(Cl)c2Cl)CC1 [Example 4, 1-((2,3-Dichlorophenyl)sulfonyl)piperidine-4-carboxylic acid] | did not lead to an increase | – | – |
| O=C(O)[C@@H]1CCCN(S(=O)(=O)c2ccccc2C(F)(F)F)C1 [Example 18, (R)-1-((2-(Trifluoromethyl)phenyl)sulfonyl)piperidine-3-carboxylic acid] | did not lead to an increase | – | – |
| O=C(O)[C@H]1CCN(S(=O)(=O)c2ccccc2C(F)(F)F)C1 [Example 15, (S)-1-((2-(Trinfluoromethyl)phenyl)sulfonyl)pyrrolidine-3-carboxylic acid] | – | 230 | – |
